Where two headings read alike, the source gives them in different places.
Columns and labels:
[1] = tested on: T-47D; test: NCI IVCLSP growth inhibition (SRB), T-47D; type: cell-based, human; conditions: 48 h drug incubation
Procedure: (§1) FIG. 1 presents nine compounds that were tested using the National Cancer Institute (NCI) 60 human tumor cell lines. The cells lines, which represent leukemia, melanoma, and cancers of the lung, colon, brain, ovary, breast, prostate, and kidney, are listed in Table 1.
(§2) Compounds 1-9 were tested according to the NCI Developmental Therapeutics Program (DTP) In Vitro Cell Line Screening Project (IVCLSP). […] Methodology for testing under the IVCLSP is as follows: The human tumor cell lines of the cancer screening panel are grown in RPMI 1640 medium containing 5% fetal bovine serum and 2 mM L-glutamine. […]
(§3) Following drug addition, the plates are incubated for an additional 48 h at 37° C., 5% CO2, 95% air, and 100% relative humidity. […] Bound stain is subsequently solubilized with 10 mM trizma base, and the absorbance is read on an automated plate reader at a wavelength of 515 nm. […] Using the seven absorbance measurements [time zero, (Tz), control growth, (C), and test growth in the presence of drug at the five concentration levels (Ti)], the percentage growth is calculated at each of the drug concentrations levels. Percentage growth inhibition is calculated as: [(Ti−Tz)/(C−Tz)]×100 for concentrations for which Ti>/=Tz [(Ti−Tz)/Tz]×100 for concentrations for which Ti<Tz.
(§4) Three dose response parameters are calculated for each experimental agent. […]

[2] = tested on: 786-0; test: NCI IVCLSP growth inhibition (SRB), 786-0; type: cell-based, human; conditions: 48 h drug incubation
Procedure: as §1, §2, §3, §4

[3] = tested on: MCF-7 cells; test: Cytotoxicity, drug-sensitive MCF-7 cells; conditions: mean ± SEM for 3 experiments
Source text: (§5) These cell lines are resistant to anticancer drugs due to overexpression of the transport proteins P-glycoprotein or MRP1.

[4] = tested on: MCF7; test: NCI IVCLSP growth inhibition (SRB), MCF7; type: cell-based, human; conditions: 48 h drug incubation
Procedure: as §1, §2, §3, §4

[5] = tested on: SK-MEL-2; test: NCI IVCLSP growth inhibition (SRB), SK-MEL-2; type: cell-based, human; conditions: 48 h drug incubation
Procedure: as §1, §2, §3, §4

[6] = tested on: HL-60(TB); test: NCI IVCLSP growth inhibition (SRB), HL-60(TB); type: cell-based, human; conditions: 48 h drug incubation
Procedure: as §1, §2, §3, §4

[7] = tested on: HCT-116; test: NCI IVCLSP growth inhibition (SRB), HCT-116; type: cell-based, human; conditions: 48 h drug incubation
Procedure: as §1, §2, §3, §4

[8] = tested on: NCI/ADR-RES; test: NCI IVCLSP growth inhibition (SRB), NCI/ADR-RES; type: cell-based, human; conditions: 48 h drug incubation
Procedure: as §1, §2, §3, §4

[9] = tested on: NCI-H23; test: NCI IVCLSP growth inhibition (SRB), NCI-H23; type: cell-based, human; conditions: 48 h drug incubation
Procedure: as §1, §2, §3, §4

[10] = tested on: SK-MEL-28; test: NCI IVCLSP growth inhibition (SRB), SK-MEL-28; type: cell-based, human; conditions: 48 h drug incubation
Procedure: as §1, §2, §3, §4

[11] = tested on: CAKI-1; test: NCI IVCLSP growth inhibition (SRB), CAKI-1; type: cell-based, human; conditions: 48 h drug incubation
Procedure: as §1, §2, §3, §4

[12] = tested on: ACHN; test: NCI IVCLSP growth inhibition (SRB), ACHN; type: cell-based, human; conditions: 48 h drug incubation
Procedure: as §1, §2, §3, §4

[13] = tested on: HS 578T; test: NCI IVCLSP growth inhibition (SRB), HS 578T; type: cell-based, human; conditions: 48 h drug incubation
Procedure: as §1, §2, §3, §4

[14] = tested on: UACC-257; test: NCI IVCLSP growth inhibition (SRB), UACC-257; type: cell-based, human; conditions: 48 h drug incubation
Procedure: as §1, §2, §3, §4

[15] = tested on: IGROVI; test: NCI IVCLSP growth inhibition (SRB), IGROVI; type: cell-based, human; conditions: 48 h drug incubation
Procedure: as §1, §2, §3, §4

[16] = tested on: SK-OV-3; test: NCI IVCLSP growth inhibition (SRB), SK-OV-3; type: cell-based, human; conditions: 48 h drug incubation
Procedure: as §1, §2, §3, §4

[17] = tested on: MCF-7/VP cells; test: Cytotoxicity, MCF-7/VP cells that overexpress MRP1; conditions: for IC50: mean ± SEM for 3 experiments
Source text: as §5

[18] = tested on: OVCAR-8; test: NCI IVCLSP growth inhibition (SRB), OVCAR-8; type: cell-based, human; conditions: 48 h drug incubation
Procedure: as §1, §2, §3, §4

[19] = tested on: SN12C; test: NCI IVCLSP growth inhibition (SRB), SN12C; type: cell-based, human; conditions: 48 h drug incubation
Procedure: as §1, §2, §3, §4

[20] = tested on: CCRF-CEM; test: NCI IVCLSP growth inhibition (SRB), CCRF-CEM; type: cell-based, human; conditions: 48 h drug incubation
Procedure: as §1, §2, §3, §4

[21] = tested on: SNB-19; test: NCI IVCLSP growth inhibition (SRB), SNB-19; type: cell-based, human; conditions: 48 h drug incubation
Procedure: as §1, §2, §3, §4

[22] = tested on: DU-145; test: NCI IVCLSP growth inhibition (SRB), DU-145; type: cell-based, human; conditions: 48 h drug incubation
Procedure: as §1, §2, §3, §4

[23] = tested on: SF-539; test: NCI IVCLSP growth inhibition (SRB), SF-539; type: cell-based, human; conditions: 48 h drug incubation
Procedure: as §1, §2, §3, §4

[24] = tested on: NCI-H460; test: NCI IVCLSP growth inhibition (SRB), NCI-H460; type: cell-based, human; conditions: 48 h drug incubation
Procedure: as §1, §2, §3, §4

[25] = tested on: M14; test: NCI IVCLSP growth inhibition (SRB), M14; type: cell-based, human; conditions: 48 h drug incubation
Procedure: as §1, §2, §3, §4

COc1cc(CCc2cn(Cc3ccccc3)c3nc(N)nc(C)c23)cc(OC)c1OC [Compound 1]
GI50 [1]: 563 nM | GI50 [2]: 254 nM | IC50 ([3]; read-out: Cytotoxicity IC50, MCF-7): 300 ± 160 nM | IC50 ([3]; read-out: drug sensitivity (IC50), MCF-7, Table 4): 280 ± 10 nM | GI50 [4]: 118 nM | GI50 [5]: 381 nM | GI50 [6]: 64.7 nM | GI50 [7]: 286 nM | GI50 [8]: 145 nM | GI50 [9]: 278 nM | GI50 [10]: > 1000 nM | GI50 [11]: 366 nM | GI50 [12]: 728 nM | GI50 [13]: 283 nM | GI50 [14]: 80.2 nM | GI50 [15]: 61.1 nM | GI50 [16]: 506 nM | Resistance (MCF-7/VP relative to MCF-7) ([17]; MRP1): 0.6 | IC50 ([17]; read-out: Cytotoxicity IC50, MCF-7/VP): 250 ± 160 nM | IC50 ([17]; read-out: drug sensitivity (IC50), MCF-7/VP, Table 4, MRP1 overexpressing): 180 ± 10 nM | GI50 [18]: 364 nM | GI50 [19]: 537 nM | GI50 [20]: 58 nM | GI50 [21]: 273 nM | GI50 [22]: 224 nM | GI50 [23]: 74.5 nM | GI50 [24]: 162 nM | GI50 [25]: 77 nM

Source: patent US8501752B2, “Methods for treating cancer and other pathological proliferating disorders by inhibiting mitosis using pyrrolo[2,3-d]pyrimidines” (Duquesne University of the Holy Ghost, priority 2005, dated 2013)
